Measured values reported in US20240368125A1, “NOVEL PYRAZINYL-TRIAZOLE COMPOUNDS AS PESTICIDES” (Bayer Aktiengesellschaft, priority 2021, published 2024).

What was measured:
Format in all cases: in vivo
[1] = tested on: adult cat fleas (Ctenocephalides felis); assay: Ctenocephalides felis in-vitro contact test, adult cat flea; conditions: 1 μg/cm^2 (=100 g/ha), after 48 hours
Description: Ctenocephalides Felis—In-Vitro Contact Tests Adult Cat Flea
(§1) 9 mg compound is solved in 1 mL acetone and diluted with acetone to the desired concentration. 250 μL of the test solution is filled in 25 mL glass test tubes and homogeneously distributed on the inner walls by rotation and tilting on a shaking device (2 h at 30 rpm). With a compound concentration of 900 ppm, an inner surface of 44.7 cm^2 and a homogeneous distribution, a dose of 5 μg/cm^2 is achieved.
(§2) After the solvent has evaporated, each test tube is filled with 5-10 adult cat fleas (Ctenocephalides felis), closed with a perforated lid and incubated in a lying position at room temperature and relative humidity. After 48 hours efficacy is determined. The fleas are patted on the ground of the tubes and are incubated on a heating plate at 45-50° C. for at most 5 minutes. Immotile or uncoordinated moving fleas, which are not able to escape the heat by climbing upwards, are marked as dead or moribund.
An efficacy of 100% means all fleas are dead or moribund; 0% means no fleas are dead or moribund.

[2] = tested on: Rhipicephalus (Boophilus) microplus larvae (strain Parkhurst, resistant against synthetic pyrethroids); assay: Rhipicephalus (Boophilus) microplus in-vitro contact test, larval cattle tick; conditions: 1 μg/cm^2 (=100 g/ha), after 48 hours; for pest or weed control at 1 µg/cm2: Rhipicephalus microplus, read-out: efficacy (larvae dead or moribund)
Description: Rhipicephalus (Boophilus) Microplus—In-Vitro Contact Tests Larval Cattle Tick (Strain Parkhurst, Resistant Against Synthetic Pyrethroids
as §1
After the solvent has evaporated, each test tube is filled with 20-50 cattle tick larvae (Rhipicephalus microplus), closed with a perforated lid and incubated in a horizontal position at 85% relative humidity and 27° C. in an incubator. After 48 hours efficacy is determined. The larvae are patted on the ground of the tubes and negative geotactic behavior is recorded.

[3] = tested on: adult brown dog ticks (Rhipicephalus sanguineus); assay: Rhipicephalus sanguineus in-vitro contact test, adult brown dog ticks; conditions: 1 μg/cm^2 (=100 g/ha), after 48 hours; for pest or weed control at 1 µg/cm2, 100 g/ha: Rhipicephalus sanguineus, read-out: efficacy (ticks dead or moribund)
Description: Rhipicephalus sanguineus—In-Vitro Contact Tests with Adult Brown Dog Ticks
as §1
as §2, with “brown dog ticks (Rhipicephalus sanguineus),” for “cat fleas (Ctenocephalides felis),”, “ticks” for “fleas”, “ticks,” for “fleas,”
An efficacy of 100% means all ticks are dead or moribund; 0% means no ticks are dead or moribund.

[4] = tested on: larvae of the banded cucumber beetle (Diabrotica balteata); assay: Diabrotica balteata spray test; conditions: 100 g/ha (=32 μg/well), wheat seeds, after 7 days
Description: Diabrotica balteata—Spray Test
Solvent: 78.0 parts by weight of acetone • • 1.5 parts by weight of dimethylformamide
(§3) Emulsifier: alkylarylpolyglycol ether
(§4) To produce a suitable preparation of active compound, 1 part by weight of active compound is mixed with the stated amount of solvent, and the concentrate is diluted with water, containing an emulsifier concentration of 1000 ppm, to the desired concentration. Further test concentrations are prepared by dilution with emulsifier containing water.
Soaked wheat seeds (Triticum aestivum) are placed in a multiple well plate filled with agar and some water and are incubated for 1 day to germinate (5 seeds per well). The germinated wheat seeds are sprayed with a test solution containing the desired concentration of the active ingredient. Afterwards each unit is infected with 10-20 larvae of the banded cucumber beetle (Diabrotica balteata).
After 7 days efficacy in % is determined. 100% means all the seedlings have grown up like in the untreated, uninfected control; 0% means none of the seedlings have grown.

[5] = tested on: fall armyworm larvae (Spodoptera frugiperda); assay: Spodoptera frugiperda spray test (SPODFR); conditions: in Zea mays, 168 h
Description: Spodoptera frugiperda—Spray Test
Solvent: 78.0 parts by weight acetone • 1.5 parts by weight dimethylformamide
as §3
as §4, with “solvents” for “solvent,”, “and” for “and the concentrate”
Maize (Zea mays) leaf sections are sprayed with a preparation of the active ingredient of the desired concentration. Once dry, the leaf sections are infested with fall armyworm larvae (Spodoptera frugiperda).
After 7 days mortality in % is determined. 100% means all caterpillars have been killed and 0% means none of the caterpillars have been killed.
Spodoptera frugiperda—Spray Test (SPODFR
After the specified period of time, mortality in % is determined. 100% means all caterpillars have been killed and 0% means none of the caterpillars have been killed.

Compound: Cc1nc([C@H](C)NC(=O)c2cc(OC(F)(F)F)cc(OC(F)(F)F)c2)n(-c2cnc(C(=O)N(C)C)cn2)n1 [Example I-037]
- efficacy (fleas dead or moribund) [1]: 100%
- efficacy (larvae dead or moribund) [2]: 100%
- efficacy (ticks dead or moribund) [3]: 100%
- efficacy (seedlings grown) [4]: 100%

Compound: C[C@H](NC(=O)c1cc(OC(F)(F)C(F)F)cc(S(C)(=O)=O)c1)c1ncnn1-c1cnc(C(=O)NCC#N)cn1 [Example I-096]
- efficacy (seedlings grown) [4]: 100%

Compound: C[C@H](NC(=O)c1cc(C(F)(F)F)cc(C(F)(F)F)c1)c1nc(C2CC2)nn1-c1cnc(C(N)=O)cn1 [Example I-057]
- efficacy (seedlings grown) [4]: 100%

Compound: C[C@H](NC(=O)c1cc(OC(F)F)cc(OC(F)F)c1)c1nc(C2CC2)nn1-c1cnc(C(N)=O)cn1 [Example I-070]
- efficacy (seedlings grown) [4]: 100%

Compound: Cc1nc([C@H](C)NC(=O)c2cc(OC(F)(F)F)cc(S(C)(=O)=O)c2)n(-c2cnc(C(=O)NCC#N)cn2)n1 [Example I-087]
- efficacy (seedlings grown) [4]: 100%

Compound: Cc1nc([C@H](C)NC(=O)c2cc(OC(F)(F)F)cc(C3CC3)c2)n(-c2cnc(C(N)=O)cn2)n1 [Example I-046]
- efficacy (larvae dead or moribund) [2]: 100%
- efficacy (seedlings grown) [4]: 100%

Compound: CCN(C)C(=O)c1cnc(-n2nc(C)nc2[C@H](C)NC(=O)c2cc(OC(F)(F)F)cc(OC(F)(F)F)c2)cn1 [Example I-038]
- efficacy (fleas dead or moribund) [1]: 100%
- efficacy (larvae dead or moribund) [2]: 100%
- efficacy (ticks dead or moribund) [3]: 100%
- efficacy (seedlings grown) [4]: 100%

Compound: CCNC(=O)c1cnc(-n2nc(C)nc2[C@H](C)NC(=O)c2cc(OC(F)(F)F)cc(OC(F)(F)F)c2)cn1 [Example I-035]
- pest or weed control at 1 µg/cm2 [2]: 100%
- mortality at 100 g/ha [5]: 100%

Compound: Cc1nc([C@H](C)NC(=O)c2cc(OC(F)(F)F)cc(C3(C#N)CC3)c2)n(-c2cnc(C(=O)N(C)C)cn2)n1 [Example I-055]
- efficacy (fleas dead or moribund) [1]: 100%
- efficacy (larvae dead or moribund) [2]: 100%
- efficacy (ticks dead or moribund) [3]: 80%

Compound: C[C@H](NC(=O)c1cc(OC(F)(F)F)cc(OC(F)(F)F)c1)c1ncnn1-c1cnc(C(N)=O)cn1 [Example I-029]
- pest or weed control at 1 µg/cm2 ([1]; Ctenocephalides felis, read-out: efficacy (fleas dead or moribund)): 100%
- pest or weed control at 1 µg/cm2 [2]: 100%
- pest or weed control at 1 µg/cm2, 100 g/ha [3]: 100%
- mortality at 100 g/ha [5]: 100%

Compound: C[C@H](NC(=O)c1cc(Cl)cc(S(F)(F)(F)(F)F)c1)c1nc(C2CC2)nn1-c1cnc(C(N)=O)cn1 [Example I-074]
- efficacy (seedlings grown) [4]: 80%

Compound: C[C@H](NC(=O)c1cc(OC(F)(F)F)cc(OC(F)(F)F)c1)c1nc(C2CC2)nn1-c1cnc(C(N)=O)cn1 [Example I-062]
- efficacy (larvae dead or moribund) [2]: 100%
- efficacy (seedlings grown) [4]: 100%

Compound: C[C@H](NC(=O)c1cc(OC(F)(F)F)cc(OC(F)(F)F)c1)c1nc(C2CC2)nn1-c1cnc(C(=O)N(C)C)cn1 [Example I-027]
- pest or weed control at 1 µg/cm2 [2]: 100%
- mortality at 100 g/ha [5]: 83%

Compound: CNC(=O)c1cnc(-n2nc(C)nc2[C@H](C)NC(=O)c2cc(OC(F)(F)F)cc(C3CC3)c2)cn1 [Example I-045]
- efficacy (fleas dead or moribund) [1]: 100%
- efficacy (larvae dead or moribund) [2]: 100%
- efficacy (ticks dead or moribund) [3]: 100%
- efficacy (seedlings grown) [4]: 100%

Compound: C[C@H](NC(=O)c1cc(OC(F)(F)F)cc(OC(F)(F)F)c1)c1ncnn1-c1cnc(C(=O)N(C)C)cn1 [Example I-025]
- efficacy (fleas dead or moribund) [1]: 100%
- efficacy (larvae dead or moribund) [2]: 100%
- efficacy (ticks dead or moribund) [3]: 100%
- efficacy (seedlings grown) [4]: 100%

Compound: CCNC(=O)c1cnc(-n2nc(C)nc2[C@H](C)NC(=O)c2cc(C(F)(F)F)cc(C(F)(F)F)c2)cn1 [Example I-013]
- pest or weed control at 1 µg/cm2 [2]: 100%
- pest or weed control at 1 µg/cm2, 100 g/ha [3]: 100%
- mortality at 100 g/ha [5]: 100%

Compound: Cc1nc([C@H](C)NC(=O)c2cc(OC(F)(F)F)cc(S(C)(=O)=O)c2)n(-c2cnc(C(=O)N(C)C3CC3)cn2)n1 [Example I-040]
- efficacy (fleas dead or moribund) [1]: 100%
- efficacy (larvae dead or moribund) [2]: 100%
- efficacy (ticks dead or moribund) [3]: 100%

Compound: C[C@H](NC(=O)c1cc(Br)cc(C(C)(C)F)c1)c1ncnn1-c1cnc(C(N)=O)cn1 [Example I-063]
- efficacy (seedlings grown) [4]: 100%

Compound: Cc1nc([C@H](C)NC(=O)c2cc(OC(F)(F)F)cc(OC(F)(F)F)c2)n(-c2cnc(C(=O)N(C)CC#N)cn2)n1 [Example I-101]
- efficacy (seedlings grown) [4]: 100%

Compound: C[C@H](NC(=O)c1cc(OC(F)(F)F)cc(OC(F)(F)F)c1)c1ncnn1-c1cnc(C(=O)N(C)CC#N)cn1 [Example I-105]
- efficacy (seedlings grown) [4]: 100%

Compound: CNC(=O)c1cnc(-n2ncnc2[C@H](C)NC(=O)c2cc(Cl)cc(S(C)(=O)=O)c2)cn1 [Example I-098]
- efficacy (larvae dead or moribund) [2]: 100%

Compound: C[C@H](NC(=O)c1cc(C(F)(F)F)cc(C(F)(F)F)c1)c1nc(C2CC2)nn1-c1cnc(C(=O)N(C)C2CC2)cn1 [Example I-058]
- efficacy (seedlings grown) [4]: 100%

Compound: C[C@H](NC(=O)c1cc(OC(F)(F)F)cc(S(C)(=O)=O)c1)c1nc(C2CC2)nn1-c1cnc(C(N)=O)cn1 [Example I-095]
- efficacy (seedlings grown) [4]: 100%

Compound: C[C@H](NC(=O)c1cc(OC(F)(F)F)cc(S(C)(=O)=O)c1)c1ncnn1-c1cnc(C(=O)NCC#N)cn1 [Example I-086]
- efficacy (seedlings grown) [4]: 100%

Compound: C[C@H](NC(=O)c1cc(Br)cc(S(F)(F)(F)(F)F)c1)c1nc(C2CC2)nn1-c1cnc(C(N)=O)cn1 [Example I-075]
- efficacy (seedlings grown) [4]: 100%

Compound: C[C@H](NC(=O)c1cc(OC(F)F)cc(OC(F)F)c1)c1ncnn1-c1cnc(C(=O)NCC#N)cn1 [Example I-089]
- efficacy (seedlings grown) [4]: 100%

Compound: C[C@H](NC(=O)c1cc(C(F)(F)F)cc(C(F)(F)F)c1)c1nc(C2CC2)nn1-c1cnc(C(=O)NC2CC2)cn1 [Example I-056]
- efficacy (larvae dead or moribund) [2]: 100%
- efficacy (seedlings grown) [4]: 100%

Compound: C[C@H](NC(=O)c1cc(OC(F)(F)F)cc(S(C)(=O)=O)c1)c1ncnn1-c1cnc(C(=O)N(C)CC#N)cn1 [Example I-104]
- efficacy (seedlings grown) [4]: 100%

Compound: C[C@H](NC(=O)c1cc(OC(F)(F)F)cc(OC(F)(F)F)c1)c1ncnn1-c1cnc(C(=O)NC2CC2)cn1 [Example I-024]
- efficacy (larvae dead or moribund) [2]: 100%
- efficacy (ticks dead or moribund) [3]: 100%
- efficacy (seedlings grown) [4]: 100%

Compound: C[C@H](NC(=O)c1cc(Cl)cc(S(C)(=O)=O)c1)c1ncnn1-c1cnc(C(=O)NCC#N)cn1 [Example I-088]
- efficacy (seedlings grown) [4]: 100%

Compound: Cc1nc([C@H](C)NC(=O)c2cc(OC(F)(F)F)cc(C3(C)CC3)c2)n(-c2cnc(C(=O)N(C)C)cn2)n1 [Example I-053]
- efficacy (fleas dead or moribund) [1]: 80%
- efficacy (larvae dead or moribund) [2]: 100%
- efficacy (ticks dead or moribund) [3]: 100%

Compound: CNC(=O)c1cnc(-n2nc(C)nc2[C@H](C)NC(=O)c2cc(OC(F)(F)F)cc(C3(C#N)CC3)c2)cn1 [Example I-054]
- efficacy (seedlings grown) [4]: 100%
